Experimental findings from US6407064B2, “Aminoalcohol derivative and medicament comprising the same” (Seikagaku Corporation, priority 1999, dated 2002) are described below.

The test system of series [1] is enzyme for ganglioside GM3 synthesis, mouse B16 melanoma cell. Put plainly: Activity of enzyme for ganglioside GM3 synthesis (14C-Gal incorporated in total lipid fraction). In kind it is cell-based. As to conditions: relative value, control regarded as 100; test compound 24 μM, 24 hours; 14C-Gal incorporation. On the procedure:
The gangliosides produced by mouse B16 melanoma cell are almost composed of ganglioside GM3. Therefore, the activity of the enzyme for ganglioside GM3 synthesis can be determined conveniently by measuring the amount of ^14C-Gal incorporated in a total lipid-extracted fraction through a liquid layer partition method.
A liquid where the cells of mouse B16 melanoma were suspended was prepared with Dulbecco modified Eagle's medium containing 10% bovine fetal serum, inoculated into a 12-well plate in an amount of 2.0×10^5 cells/ml/well, and cultured in 5% CO2 incubator at 37° C. The treatment with a test compound (24 μM) and the addition of ^14C-Gal (22.2 kBq/11.7 nmol/6 μl/well) were started through the exchange of total amount of the medium 24 hours after the culture was started. Twenty-four hours after the treatment with the test compound was started, the culture mixture was treated with PBS containing 0.02% EDTA and PBS containing 0.25% trypsin successively to recover the cells.
Then, a mixed solvent of chloroform:methanol=2:1 (3 ml) was added to the cell pellet and, after the subjection to an ultrasonication for 30 minutes, the supernatant was recovered. Furthermore, a mixed solvent of chloroform:methanol=1:1 (3 ml) was added to the residual pellet after the recovery of the supernatant, and a similar operation was carried out. The resulting supernatant was combined with the first supernatant and the whole was evaporated to dryness under a nitrogen stream. A desalinated water (1.0 ml) was added to the total lipid-extracted fraction. After having been subjected to an ultrasonication for 1 minute, the mixture was transferred into a dialysis tube and dialyzed against water for 2 days. The sample after the dialysis was transferred into a vial for liquid scintillation counter and, after the addition of scintillator, the activity of incorporating ^14C-Gal was measured on scintillation counter.
The values of activity of the compounds of the present invention are shown as relative values obtained by calculation on the basis that the value of a control (a group where no test compound was added) is regarded as 100 in Table 3 below.

For series [2], the system named is cultured neurocytes of rat fetal cerebral cortex. The experiment in a line: Activity of accelerating synapse formation (intracellular calcium ion level, fura-2). The settings on record: relative value, L-PDMP regarded as 100; compound 20 μM; assay on 10th day of culture. It counts as cell-based. As for the experimental part:
The activity of accelerating synapse formation was determined by measuring change of an intracellular calcium ion level resulted from the synchronized spontaneous ignition of neurocytes which is considered to show synapse activities by means of an intracellular calcium ion multipoint observation system using a calcium ion fluorescence indicator, fura-2.
Concretely, rat fetuses at the 18th day of pregnancy were taken out from Wistar rats (available from Japan SLC), and cerebral cortices of the fetuses were taken out and cut into small pieces. After having been treated with papain (manufactured by Worthington Biochemical) at 37° C. for 30 minutes, the pieces were suspended into a Dulbecco modified Eagle's medium containing 5% bovine neonatal serum and 5% equine serum and the cortices were dissociated into single cells with Cell Striner (70 μm, Falcon). Then, the cells were inoculated into a flexiperm plate coated with 0.5% polyethyleneimine (1.0×10^6 cells/500 μl/well), and was cultured in 7% CO2 incubator at 37° C. The medium was exchanged on 2nd, 5th, and 8th days after the culture had been started. The activity of the compound of the present invention was measured using the primary culture. The compound was added at the time when the medium was exchanged and the concentration of the compound was maintained to be 20 μM. Assay was carried out on 10th day after the culture had been started.
(2) Measurement of Activity of Accelerating Synapse Formation
Concretely, after the medium of each well where cells were cultured was substituted with basic salt solution (BSS), 3 μl of a DMSO solution (1 mg/ml) of a calcium ion fluorescence indicator fura-2 was added, and the whole was kept at 37° C. for 1 hour.

Series [3] is described as follows: Tissue distribution: concentration in plasma and skeletal muscle after oral or intravenous administration. In kind it is in vivo. As to conditions: rat. On the procedure:
Tissue distribution of the compound in Example 19 was compared with that of L-PDMP using 6-8 week old Wistar male rats.
As oral administration, a physiological saline containing 20 mg/ml of a test substance was administered at 100 mg/5 ml/kg, and as intravenous administration, a physiological saline containing 1.25 mg/ml of a test substance was administered to the cervical vein at 5 mg/4 ml/kg.
After the predetermined time had passed since the above administration, blood was collected from the rat cervical vein, a 3.8% sodium citrate solution was added thereto at 1/10 volume, followed by centrifugation at 3,000 rpm for 15 minutes to obtain the supernatant as a plasma sample.
Also, after the predetermined time had passed since the above administration, the skeletal muscle was collected from the femoral region of both hind legs, ice water was added thereto at 4 ml/g tissue, followed by homogenization, and the same volume of acetonitrile was added thereto, followed by vigorously stirring and centrifugation at 4000 rpm for 10 minutes to obtain the supernatant as a skeletal muscle sample.
The plasma and skeletal muscle samples were extracted by OASIS HLB solid phase extraction column (manufactured by Waters), and the concentration of the test compound in the plasma and the muscle was determined by high performance liquid chromatography (HPLC). The conditions of HPLC analysis were as follows:
Detection wavelength: 218 nm
Column: DAISO PACK SP-120-5-ODS-BP
Column temperature: 40° C.
Mobile phase: 0.1% trifluoroacetic acid solution:methanol=36:64 (for L-PDMP); 0.1% trifluoroacetic acid solution:methanol=48:52 (for the compound in Example 19)
The concentrations in the plasma and skeletal muscle of the compound in Example 19 and L-PDMP after the predetermined time has been passed since the administration of the test compounds are shown in Tables 4-6 below. The values are the mean values of at least two test samples. Specifically, Table 4, Table 5, and Table 6 show the concentrations in the plasma after the oral administration of 100 mg/kg, the concentrations in the skeletal muscle after the oral administration of 100 mg/kg, and the concentrations in the plasma after the intravenous administration of 5 mg/kg, respectively.

Turning to `O=C(CNC(=O)OCc1ccccc1)N[C@@H](CN1CCOCC1)[C@@H](O)c1ccccc1` [Example 1], the “Activity of accelerating glycolipid biosynthesis (Test Example 2)” value (shortened to “Activity … (Test Example 2)”) in series [1] is listed as 85.2.

On to `O=C(CNC(=O)OCc1ccccc1)NCC(=O)N[C@@H](CN1CCOCC1)[C@@H](O)c1ccccc1` [Example 2], for which the “Activity … (Test Example 2)” value in series [1] was 130.9.

On to `CCCCOC(=O)NCC(=O)N[C@@H](CN1CCOCC1)[C@@H](O)c1ccccc1` [Example 3], for which the “Activity … (Test Example 2)” value in series [1] is 98.6.

For the compound `CCCCCC(=O)NCC(=O)N[C@@H](CN1CCOCC1)[C@@H](O)c1ccccc1` [Example 4, (1S,2S)-2-(n-hexanoyl)glycylamino-3-morpholino-1-phenyl-1-propanol], the “Activity … (Test Example 2)” value in series [1] was found to be 71.3.

For `CCOC(=O)CCCCC(=O)N[C@@H](CN1CCOCC1)[C@@H](O)c1ccccc1` [Example 6, (1S,2S)-2-ethoxyhexanedioylamino-3-morpholino-1-phenyl-1-propanol], the “Activity of synapse formation” value in series [2] was determined as 87.5.

As for `CCCCN(C)C(=O)CCC(=O)N[C@@H](CN1CCOCC1)[C@@H](O)c1ccccc1` [Example 10, (1S,2S)-2-(N-butyl-N-methylamino)butanedioylamino-3-morpholino-1-phenyl-1-propanol], the “Activity of synapse formation” value in series [2] is 91.7.

Turning to `CCNC(=O)CCCCC(=O)N[C@@H](CN1CCOCC1)[C@@H](O)c1ccccc1` [Example 11, (1S,2S)-2-(5-ethylcarbamoyl)pentanoylamino-3-morpholino-1-phenyl-1-propanol], the “Activity of synapse formation” value in series [2] turned out to be 93.3.

`CCCCNC(=O)CCCCCCCCC(=O)N[C@@H](CN1CCOCC1)[C@@H](O)c1ccccc1` [Example 14, (1S,2S)-2-(9-butylcarbamoyl)nonanoylamino-3-morpholino-1-phenyl-1-propanol]: the “Activity of synapse formation” value in series [2] is 94.2.

For the compound `CCCCCCNC(=O)CCCCCCCCC(=O)N[C@@H](CN1CCOCC1)[C@@H](O)c1ccccc1` [Example 15, (1S,2S)-2-(9-hexylcarbamoyl)nonanoylamino-3-morpholino-1-phenyl-1-propanol], the “Activity of synapse formation” value in series [2] is on record as 90.0.

Take `CCCCCCNC(=O)C1CCC(C(=O)N[C@@H](CN2CCOCC2)[C@@H](O)c2ccccc2)CC1` (stereo partly drawn) [Example 17, (1S,2S)-2-(cyclohexane-4-hexylcarbamoyl-1-carbonyl)amino-3-morpholino-1-phenyl-1-propanol]: in series [2], the “Activity of synapse formation” value is recorded as 90.0.

Consider `CCCCOCCOCC(=O)N[C@@H](CN1CCOCC1)[C@@H](O)c1ccccc1` [Example 19, (1S,2S)-2-(3,6-dioxadecanoyl)amino-3-morpholino-1-phenyl-1-propanol], for which the “Activity of synapse formation” value in series [2] is 90.8. Further, the concentration at 10 min in series [3] (male, Wistar, plasma, intravenous administration of 5 mg/kg, 10 min) came out at 2.24 µg/mL. Also, in series [3] (male, Wistar, plasma, intravenous administration of 5 mg/kg, 25 min), the concentration at 25 min amounted to 0.56 µg/mL. This compound had a concentration at 5 min in series [3] (male, Wistar, plasma, oral administration of 100 mg/kg, 5 min) of 2.62 µg/mL. Further, the concentration at 15 min in series [3] (male, Wistar, plasma, oral administration of 100 mg/kg, 15 min) turned out to be 8.66 µg/mL. Moreover, the concentration at 30 min in series [3] (male, Wistar, plasma, oral administration of 100 mg/kg, 30 min) was found to be 6.14 µg/mL. For the same compound, the concentration at 60 min in series [3] (male, Wistar, plasma, oral administration of 100 mg/kg, 60 min) was 0.95 µg/mL. In series [3] (in words), the “retention in plasma and skeletal muscle compared with L-PDMP” value is “kept in the plasma and skeletal muscle for a longer time”; the “tissue distribution compared with L-PDMP” value is “higher tissue distribution than L-PDMP”.

In the case of `CCCCCCOCCOCC(=O)N[C@@H](CN1CCOCC1)[C@@H](O)c1ccccc1` [Example 21, (1S,2S)-2-(3,6-dioxadodecanoyl)amino-3-morpholino-1-phenyl-1-propanol], the “Activity of synapse formation” value in series [2] is on record as 97.5.

For the compound `CC(=O)CCCCCC(=O)N[C@@H](CN1CCOCC1)[C@@H](O)c1ccccc1` [Example 22, (1S,2S)-2-(7-oxooctanoyl)amino-3-morpholino-1-phenyl-1-propanol], in series [2], the “Activity of synapse formation” value is recorded as 88.3.

On to `O=C(CCCCCCCCCO)N[C@@H](CN1CCOCC1)[C@@H](O)c1ccccc1` [Example 23, (1S,2S) -2-(10-hydroxydecanoyl) amino-3-morpholino-1-phenyl-1-propanol], for which the “Activity of synapse formation” value in series [2] was 85.8.

Turning to `N[C@@H](CCCCNC(=O)CCCCC(=O)N[C@@H](CN1CCOCC1)[C@@H](O)c1ccccc1)C(=O)O` [Example 26, (1S,2S,12S)-2-(12-amino-7-aza-6-oxo-12-carboxydodecanoyl)amino-3-morpholino-1-phenyl-1-propanol], the “Activity of synapse formation” value in series [2] stood at 95.0.

With `N[C@@H](CCCCNC(=O)CCCCCCCCC(=O)N[C@@H](CN1CCOCC1)[C@@H](O)c1ccccc1)C(=O)O` [Example 27, (1S,2S,16S)-2-(16-amino-11-aza-10-oxo-16-carboxyhexadecanoyl)amino-3-morpholino-1-phenyl-1-propanol], the “Activity of synapse formation” value in series [2] is listed as 100.0.

For the compound `CC(=O)NC1C(O)CC(CCCCCCCCC(=O)N[C@@H](CN2CCOCC2)[C@@H](O)c2ccccc2)(C(=O)O)OC1C(O)C(O)CO` (stereo partly drawn) [Example 28, (1S,2S)-2-(9-sialylnonanoyl)amino-3-morpholino-1-phenyl-1-propanol], the “Activity of synapse formation” value in series [2] was 95.8.

With “(1S,2S)-2-(5-cyclohexylcarbamoyl)pentanoylamino-3-morpholino-1-phenyl-1-propanol [Example 12]”, the “Activity of synapse formation” value in series [2] was found to be 80.0.

Take “(1S,2S)-2-(5-hexylcarbamoyl)pentanoylamino-3-morpholino-1-phenyl-1-propanol [Example 13]”: the “Activity of synapse formation” value in series [2] came to 95.0.
